Experimental findings from patent publication US20200338082A1, “FORMULATIONS, SYSTEMS, AND METHODS FOR THERAPEUTIC TREATMENT” (priority 2017, published 2020) are described below.

Structures are written as SMILES. Where a name gives a salt, the structure may show the parent alone.

The first series can be described thus: Solubility of chemotherapeutic agents in solubilizing excipients and excipient blends. The following applies: all organic blends: PEG400/Tween; Cremophor or Solutol/PEG400; Cremophor or Solutol/DMA or ethanol/PEG400. It counts as physicochemical. The protocol:
Eleven compounds and seven solubilizing excipients were obtained from commercial sources (see Table 1). […] The excipients listed comprise all of the organic solubilizers currently approved by the FDA for intravenous use in human patients.
Concentration targets were calculated based on providing the same amount of drug used clinically over the time period typically allotted for each compound (see Table 2 for target concentrations). Each solubilizing mixture was started at the target concentration, and if ineffective, diluted 2-fold successively until solubilization was achieved (sometimes with the help of gentle heating, mixing, or sonication), or until the solution was tested at 1:16 the target concentration, in which case further testing was halted (this concentration is approximately what would be required to hit a target dose with a daily cartridge exchange in a delivery device).
Three primary formulation combinations were tested in this example: • Solvent and co-solvent systems (PEG400 and Tween® 20 or Tween® 80) • Surfactant and co-solvent systems (Cremophor® or Solutol® and PEG400) • Surfactant and solvent/co-solvent systems (Cremophor® or Solutol® and DMA or ethanol and PEG400) For the first two combinations, mixtures were made upfront and solubility of each compound tested within. For the third, the compound was pre-dissolved in either DMA or ethanol and the remaining components then added as a mixture.
Take `O=c1[nH]cc(F)c(=O)[nH]1` [5-FU, fluorouracil]: the “solubility in organic blends tested” value is “insoluble in all of the organic blends tested”.

For `N.N.O=C([O-])C1(C(=O)[O-])CCC1.[Pt+2]` [carboplatin], the “solubility in organic blends tested” value is listed as “insoluble in all of the organic blends tested”.

Consider `Nc1ccn([C@@H]2O[C@H](CO)[C@@H](O)C2(F)F)c(=O)n1` [gemcitabine hydrochloride], for which the “solubility in organic blends tested” value is listed as “insoluble in all of the organic blends tested”.

For `CCc1c2c(nc3ccc(OC(=O)N4CCC(N5CCCCC5)CC4)cc13)-c1cc3c(c(=O)n1C2)COC(=O)[C@]3(O)CC` [irinotecan], the “solubility in organic blends tested” value is listed as “insoluble in all of the organic blends tested”.

The same series, now with this note: compound pre-dissolved in dimethylacetamide (DMA).
With `CC(=O)O[C@@]12CO[C@@H]1C[C@H](O)[C@@]1(C)C(=O)[C@H](O)C3=C(C)[C@@H](OC(=O)[C@H](O)[C@@H](NC(=O)OC(C)(C)C)c4ccccc4)C[C@@](O)([C@@H](OC(=O)c4ccccc4)[C@H]21)C3(C)C` [docetaxel], the “solubility in DMA” value is “sufficient to solubilize”.

With `COc1cc([C@@H]2c3cc4c(cc3[C@@H](O[C@@H]3O[C@@H]5CO[C@@H](C)O[C@H]5[C@H](O)[C@H]3O)[C@H]3COC(=O)[C@H]23)OCO4)cc(OC)c1O` [etoposide], the “solubility in DMA” value is “sufficient to solubilize”.

Consider `CN(Cc1cnc2nc(N)nc(N)c2n1)c1ccc(C(=O)N[C@@H](CCC(=O)O)C(=O)O)cc1` [methotrexate], for which the “solubility in DMA” value is “sufficient to solubilize”.

`CC(=O)O[C@H]1C(=O)[C@@]2(C)[C@H]([C@H](OC(=O)c3ccccc3)[C@]3(O)C[C@H](OC(=O)[C@H](O)[C@@H](NC(=O)c4ccccc4)c4ccccc4)C(C)=C1C3(C)C)[C@]1(OC(C)=O)CO[C@@H]1C[C@@H]2O` [paclitaxel]: the “solubility in DMA” value is listed as “sufficient to solubilize”.

As for `CC[C@]1(O)C[C@@H]2CN(CCc3c([nH]c4ccccc34)[C@@](C(=O)OC)(c3cc4c(cc3OC)N(C)[C@H]3[C@@](O)(C(=O)OC)[C@H](OC(C)=O)[C@]5(CC)C=CCN6CC[C@]43[C@@H]65)C2)C1` [vinblastine], the “solubility in DMA” value was “sufficient to solubilize”.

Still in this series, the particulars now being: free base versus hydrochloride salt.
Regarding `Nc1ccn([C@@H]2O[C@H](CO)[C@@H](O)C2(F)F)c(=O)n1` [gemcitabine], the “solubility of free base instead of the salt” value is recorded as “increased solubility”.
